Test results: patent US6180651A, “Diarylmethylidenefuran derivatives, processes for their preparation and their uses in therapeutics” (Bristol-Myers Squibb, priority 1996, dated 2001)

Assays:
[1] = molecular target: T1, COX-2 (Ovis aries, UniProt P79208); assay: inhibition of COX-2 enzymatic activity (PGE2 by EIA); type: biochemical, ewe; settings: for IC50: purified enzyme from ewe placenta, arachidonic acid 4 μM, n=1 to 4 determinations; for Selectivity COX-1/COX-2 ratio: ratio of IC50 COX-1 / IC50 COX-2
T1 construct: purified enzyme from ewe placenta; from tissue; host or cells: ewe placenta (purified enzyme)
T1 sequence (P79208 17-603): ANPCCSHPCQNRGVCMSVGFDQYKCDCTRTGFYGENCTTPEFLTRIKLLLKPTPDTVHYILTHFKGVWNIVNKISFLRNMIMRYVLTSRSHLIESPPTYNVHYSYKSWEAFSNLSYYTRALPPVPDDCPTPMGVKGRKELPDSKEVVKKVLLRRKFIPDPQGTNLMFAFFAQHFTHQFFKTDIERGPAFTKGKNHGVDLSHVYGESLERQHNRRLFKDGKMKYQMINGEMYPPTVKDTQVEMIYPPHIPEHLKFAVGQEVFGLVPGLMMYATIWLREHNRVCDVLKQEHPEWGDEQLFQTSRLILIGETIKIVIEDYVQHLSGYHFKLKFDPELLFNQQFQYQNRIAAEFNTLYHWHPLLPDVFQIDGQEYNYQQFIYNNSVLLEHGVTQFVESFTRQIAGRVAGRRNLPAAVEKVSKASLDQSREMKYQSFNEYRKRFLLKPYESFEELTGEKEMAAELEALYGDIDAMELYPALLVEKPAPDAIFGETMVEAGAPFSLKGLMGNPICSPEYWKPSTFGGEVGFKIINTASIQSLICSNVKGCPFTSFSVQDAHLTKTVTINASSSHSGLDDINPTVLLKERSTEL
Protocol: (§1) Inhibition of the COX-1 and COX-2 Enzymatic Activities The test molecule is preincubated for 10 minutes at 25° C. with 2 U of COX-1 (purified enzyme from ram seminal vesicles) or 1 U of COX-2 (purified enzyme from ewe placenta). Arachidonic acid (6 μM for COX-1, 4 μM for COX-2) is added to the reaction medium and incubation is carried out for 5 minutes at 25° C. When incubation has ended, the enzymatic reaction is stopped by the addition of 1 N HCl and the PGE2 produced is determined by EIA. The results are expressed as IC50, the concentration in nM which corresponds to 50% inhibition of the maximal enzymatic activity on the COX-1 and COX-2 (n=1 to 4 determinations).

[2] = molecular target: T2, COX-1 (Ovis aries, UniProt P05979); assay: inhibition of COX-1 enzymatic activity (PGE2 by EIA); type: biochemical; settings: purified enzyme from ram seminal vesicles; arachidonic acid 6 μM; n=1 to 4 determinations
T2 construct: purified enzyme from ram seminal vesicles; from tissue; host or cells: ram seminal vesicles (purified enzyme)
T2 sequence (P05979 25-600): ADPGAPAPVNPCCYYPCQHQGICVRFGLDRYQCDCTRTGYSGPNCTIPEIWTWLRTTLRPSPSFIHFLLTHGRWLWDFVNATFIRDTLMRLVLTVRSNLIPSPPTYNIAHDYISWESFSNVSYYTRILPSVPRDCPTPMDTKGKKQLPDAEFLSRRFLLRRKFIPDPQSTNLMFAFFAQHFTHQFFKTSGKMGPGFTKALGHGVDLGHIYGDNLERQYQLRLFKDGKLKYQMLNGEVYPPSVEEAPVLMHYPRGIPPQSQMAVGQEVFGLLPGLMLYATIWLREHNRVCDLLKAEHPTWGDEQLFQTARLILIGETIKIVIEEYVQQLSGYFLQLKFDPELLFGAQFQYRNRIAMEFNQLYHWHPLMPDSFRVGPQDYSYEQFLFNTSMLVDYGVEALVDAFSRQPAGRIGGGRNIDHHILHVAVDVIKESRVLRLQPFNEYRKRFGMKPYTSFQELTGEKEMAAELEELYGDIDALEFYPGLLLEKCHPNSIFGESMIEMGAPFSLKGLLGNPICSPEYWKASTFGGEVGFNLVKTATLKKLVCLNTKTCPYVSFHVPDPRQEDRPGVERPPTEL
Protocol: as §1

[3] = test system: carrageenin oedema; assay: anti-inflammatory activity, carrageenin oedema test; type: in vivo; settings: rat, oral; dose which induces 50% decrease in the volume of the oedema; read-out: Anti-inflammatory activity ID50
Protocol: (§2) The anti-inflarnmatory activity of the compounds of the Examples was evaluated by the carrageenin oedema method and the analgesic activity was evaluated by the kaolin arthritis method.
Anti-inflammatory Activity:
The anti-inflammatory activity is evaluated in the rat by the carrageenin oedema test. The product is administered orally at a rate of 2.5 ml/100 g (n=6 animals per dose) 2 h 30 min after oral hyperhydration (2.5 m/100 g); one hour after administration of the product, the oedema is induced by the plantar subcutaneous injection of 2% aqueous carrageenin solution. The results are expressed as the ID50, the dose in mg/kg which induces 50% decrease in the volume of the oedema, calculated by linear regression using the maximum oedema volume obtained for each product tested.

[4] = test system: kaolin arthritis; assay: analgesic activity, kaolin arthritis test; type: in vivo; settings: rat, oral; dose which induces 50% decrease of the maximum quotation in the control batch; read-out: Analgesic activity DE50
Protocol: as §2
The analgesic activity is evaluated in the rat by the kaolin arthritis test. Thirty minutes after the intra-articular administration of 10% aqueous kaolin suspension, the product is administered orally at a rate of 1 ml/100 g (n=10 animals per dose). The results are expressed as DE50, the dose in mg/kg which induces 50% decrease of the maximum quotation in the control batch, calculated by linear regression.

SMILES: CS(=O)(=O)c1ccc(/C(=C2\CCOC2=O)c2ccc(F)c(F)c2)cc1 [54 (Z isomer), (Z)-3-[1-(3,4-Difluorophenyl)-1-(4-methanesulphonylphenyl)-methylidene]dihydrofuran-2-one]
- IC50 [1]: 710 nM
- Selectivity COX-1/COX-2 ratio [1]: > 141
- IC50 [2]: > 100 µM
- ED50 [3]: > 30 mg/kg
- ED50 [4]: 10.8 mg/kg

SMILES: NS(=O)(=O)c1ccc(/C(=C2\CCOC2=O)c2ccc(F)cc2)cc1 [60 (E isomer), (E)-4-[(4-fluorophenyl)-(2-oxo-dihydrofuran-3-ylidene)methyl]benzenesulphonamide]
- IC50 [1]: 296 ± 107 nM
- Selectivity COX-1/COX-2 ratio [1]: 274
- IC50 [2]: 81 µM
- ED50 [3]: 1.7 mg/kg
- ED50 [4]: 20.9 mg/kg

SMILES: CS(=O)(=O)c1ccc(/C(=C2\CCOC2=O)c2cc(Cl)cc(Cl)c2)cc1 [70 (Z isomer), (Z)-3-[1-(3,5-dichlorophenyl)-1-(4-methanesulphonylphenyl)methylidene]-dihydro-furan-2-one]
- IC50 [1]: 225 nM
- Selectivity COX-1/COX-2 ratio [1]: > 444
- IC50 [2]: > 100 µM
- ED50 [3]: 5.5 mg/kg
- ED50 [4]: 21.5 mg/kg

SMILES: CS(=O)(=O)c1ccc(/C(=C2\CCOC2=O)c2ccc(F)cc2F)cc1 [75 (Z isomer), (Z)-3-[1-(2,4-difluorophenyl)-1-(4-methanesulphonylphenyl)methylidene]-dihydro-furan-2-one]
- ED50 [3]: 4.6 mg/kg

SMILES: CS(=O)(=O)c1ccc(/C(=C2\CCOC2=O)c2cc(F)cc(F)c2)cc1 [80 (Z isomer), (Z)-3-[1-(3,5-difluorophenyl)-1-(4-methanesulphonylphenyl)methylidene]-dihydro-furan-2-one]
- IC50 [1]: 518 nM
- Selectivity COX-1/COX-2 ratio [1]: > 193
- IC50 [2]: > 100 µM
- ED50 [3]: 4.8 mg/kg
- ED50 [4]: 5.8 mg/kg

SMILES: Cc1ccc(/C(=C2/CCOC2=O)c2ccc(S(C)(=O)=O)cc2)cc1 [85 (E isomer), (E)-3-[1-(4-methylphenyl)-1-(4-methanesulphonylphenyl)methylidene]-dihydro-furan-2-one]
- IC50 [1]: 350 nM
- Selectivity COX-1/COX-2 ratio [1]: > 286
- IC50 [2]: > 100 µM
- ED50 [3]: > 30 mg/kg
- ED50 [4]: > 30 mg/kg

SMILES: CS(=O)(=O)c1ccc(/C(=C2\CCOC2=O)c2cccc(Br)c2)cc1 [90 (Z isomer), (Z)-3-[1-(3-bromophenyl)-1-(4-methanesulphonylphenyl)methylidene]-dihydro-furan-2-one]
- IC50 [1]: 458 nM
- Selectivity COX-1/COX-2 ratio [1]: > 218
- IC50 [2]: > 100 µM
- ED50 [3]: 17.2 mg/kg

SMILES: CS(=O)(=O)c1ccc(/C(=C2\CCOC2=O)c2ccc(F)c(Cl)c2)cc1 [95 (Z isomer), (Z)-3-[1-(3-chloro-4-fluorophenyl)-1-(4-methanesulphonylphenyl)methylidene]-dihydrofuran-2-one]
- IC50 [1]: 205 ± 35 nM
- Selectivity COX-1/COX-2 ratio [1]: 1510
- IC50 [2]: 309 ± 27.5 µM
- ED50 [3]: 1.6 mg/kg
- ED50 [4]: 5.8 mg/kg

SMILES: CS(=O)(=O)c1ccc(/C(=C2\CCOC2=O)c2ccc(Br)cc2)cc1 [100 (Z isomer), (Z)-3-[1-(4-bromophenyl)-1-(4-methanesulphonylphenyl)methylidene]-dihydro-furan-2-one]
- IC50 [1]: 166 nM
- Selectivity COX-1/COX-2 ratio [1]: 373
- IC50 [2]: 62 µM
- ED50 [3]: 3.6 mg/kg

SMILES: Cc1ccc(/C(=C2/CCOC2=O)c2ccc(S(N)(=O)=O)cc2)cc1F [130 (Z isomer), (Z)-4-[(3-fluoro-4-methylphenyl)-(2-oxo-dihydrofuran-3-ylidene)methyl]benzenesulphonamide]
- IC50 [1]: 131 ± 19 nM
- Selectivity COX-1/COX-2 ratio [1]: 349
- IC50 [2]: 45.7 µM
- ED50 [3]: 2 mg/kg
- ED50 [4]: 2.4 mg/kg
